The source of these data is patent US7371763B2, “Inhibition of raf kinase using quinolyl, isoquinolyl or pyridyl ureas” (Bayer Pharmaceuticals Corporation, priority 2001, dated 2008).

In general, melting point refers to the temperature of the solid-liquid transition.

`CC(C)(C)c1ccnc(NC(=O)Nc2ccc(Oc3ccc(Cl)cc3)cc2)c1` [Entry 8, N-(4-tert-Butylpyridyl)-N′-(4-(4-chlorophenoxy)phenyl) urea] displayed a melting point of 198 to 199 °C.
